Target: T1, Ubiquitin carboxyl-terminal hydrolase 2 [258-605] (Homo sapiens, UniProt O75604)
T1 construct: 258-605
T1 sequence (O75604 whole entry): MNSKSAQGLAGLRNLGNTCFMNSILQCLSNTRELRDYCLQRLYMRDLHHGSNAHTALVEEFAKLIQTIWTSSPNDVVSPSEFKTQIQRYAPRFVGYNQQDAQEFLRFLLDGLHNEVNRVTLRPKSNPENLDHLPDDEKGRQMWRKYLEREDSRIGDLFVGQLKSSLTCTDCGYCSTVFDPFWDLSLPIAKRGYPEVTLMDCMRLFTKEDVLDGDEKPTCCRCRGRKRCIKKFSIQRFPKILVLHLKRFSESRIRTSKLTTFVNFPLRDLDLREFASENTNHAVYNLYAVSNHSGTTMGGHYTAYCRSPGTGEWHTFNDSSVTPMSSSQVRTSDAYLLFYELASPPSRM
Experiment: Ub-AMC-Hydrolysis Assay
Description: The assays were performed using Infinite 200 PRO - Tecan plate reader and 96-well, black Greiner microplates in a […] reaction volume. […]

IC50: 5.8 µM
Compound: COC(=O)C1CC[C@@]2(C)[C@H](CC[C@@H]3[C@@H]2CC[C@]2(C)[C@@H]([C@H](C)CCC(=O)O)CC[C@@H]32)C1 (stereo partly specified) [LCAE]

Reference: BindingDB's records for doi:10.1016/j.chembiol.2017.03.002 (Jagiellonian University, 2017)
